As usually defined, the pIC50 is −log10 of the IC50, conventionally taken in molar units.

This is an account of results in US20130029981A1, “COMPOUNDS, COMPOSITIONS, AND METHODS FOR CONTROLLING BIOFILMS” (Katholieke Universiteit Leuven, priority 2009, published 2013).

pIC50: −log10 of the molar value. Read-outs that look alike come from different tables or passages of the source.

The subject of this assay is S. Typhimurium ATCC14028. In words: Static peg assay for prevention of biofilm formation (Calgary device, crystal violet). Format: cell-based, Salmonella Typhimurium. The protocol: (§1) Evaluation of the biofilm inhibitory activity of some substituted 2-amino-1H-imidazoles of the invention was carried out by growing up biofilms of S. Typhimurium ATCC14028 or SL1344 or Pseudomonas aeruginosa PA14 in the presence of different concentrations (1/2 dilution series) of biofilm inhibitors, by using the Calgary biofilm device. After an incubation period of 24 hours at 25° C. or 37° C. or 48 hours at 16° C. the biofilms were visualized by crystal violet staining. In the next step the stain was extracted from the biofilm with 30% acetic acid. The absorbance of the resolubilized stain at 570 nm is a measure of the amount of biofilm formed.
In examples 2 and 3, the following materials and methods were used.
The device used for biofilm formation is a platform carrying 96 polystyrene pegs (Nunc no. 445497) that fits as a microtiter plate lid with a peg hanging into each microtiter plate well (Nunc no. 269789). Biofilm formation assays were carried out at 16° C., 25° C. and 37° C.
For biofilm assays at 16° C. and 25° C., two-fold serial dilutions of the compounds in 100 μl liquid TSB 1/20 broth per well were prepared in the microtiter plate. Subsequently, an overnight culture of S. Typhimurium ATCC14028 or SL1344 (grown up in LB medium) was diluted 1:100 into TSB 1/20 broth and 100 μl (ca. 10^6 cells) was added to each well of the microtiter plates, resulting in a total amount of 200 μl medium per well. The pegged lid was placed on the microtiter plate and the plate was incubated for 48 hours at 16° C. or for 24 hours at 25° C. without shaking. During this incubation period biofilms were formed on the surface of the pegs. In case of the assay at 16° C., after 24 hours the lid was transferred into a new plate with medium and the specific molecules used for testing. […] For quantification of biofilm formation, the pegs were washed once in 200 μl phosphate buffered saline (PBS). The remaining attached bacteria were stained for 30 minutes with 200 μl 0.1% (w/v) crystal violet in an isopropanol/methanol/PBS solution (v/v 1:1:18). Excess stain was rinsed off by placing the pegs in a 96-well plate filled with 200 μl distilled water per well. After the pegs were air dried (30 min), the dye bound to the adherent cells was extracted with 30% glacial acetic acid (200 μl). The OD570 of each well was measured using the VERSAmax microtiter plate reader. The IC50 value for each compound was determined from concentration gradients in two or three independent experiments (with 2 or 3 repeats per experiment), by using the GraphPad software of Prism.
For biofilm assays at 37° C., two-fold serial dilutions of the compounds in 50 μl liquid CFA broth per well were prepared in the microtiter plate. Subsequently, an overnight culture of S. Typhimurium ATCC 14028 was diluted 1:100 into CFA broth and 100 μl (ca. 10^6 cells) was added to each well of the microtiter plates, resulting in a total amount of 150 μl medium per well. The pegged lid was placed on the microtiter plate and the plate was incubated for 24 hours at 37° C. without shaking. During incubation the plates were placed in a humidity controlled container to prevent evaporation of the growth medium. Quantification of biofilm formation was performed similarly as described above for the assays at 16° C. and 25° C.
as §1, with “imidazo[1,2-a]pyrimidinium bromide salts” for “2-amino-1H-imidazoles”

[1] abbreviates: 25° C., 24 hours, Table 15, read-out: (1) IC50 (biofilm inhibition).
Where [2] appears, read: 25° C., Table 16, read-out: S. Typhimurium IC50 (biofilm formation).
[3] abbreviates: Salmonella enterica, 25° C., 24 hours, Table 15, read-out: (1) IC50 (biofilm inhibition).
Where [4] appears, read: 25° C., Table 11, read-out: IC50 (biofilm formation).
The mark [5] stands for this setting: 25° C., Table 14, read-out: IC50 biofilm inhibition.
Setting [6] is: 25° C., Table 19, read-out: IC50 (biofilm formation).
Setting [7] is: S. Typhimurium ATCC 14028, 25° C., read-out: S. Typhimurium IC50 (biofilm formation).
Setting [8] is: S. Typhimurium ATCC 14028, 25° C., read-out: IC50 for biofilm inhibition (25° C.).
Setting [9] is: Salmonella enterica, 25° C., Table 11, read-out: IC50 (biofilm formation).
Where [10] appears, read: Salmonella enterica, 25° C., Table 14, read-out: IC50 biofilm inhibition.

With `CCCCCCCCCCN1c2nccc[n+]2CC1(O)c1ccc(-c2ccc(-c3ccc([N+](=O)[O-])cc3)cc2)cc1` (racemic), under setting [1], the pIC50 was 3.28.

For the molecule `CN1c2nccc[n+]2CC1(O)c1ccc(Cl)cc1` (racemic) [Compound 15], under setting [2], the pIC50 is 3.65.

As for `CN1c2nccc[n+]2CC1(O)c1ccc([N+](=O)[O-])cc1` (racemic) [Compound 28], under setting [2], the pIC50 was 3.16.

On to `CCCCCCCCCCN1c2nccc[n+]2CC1(O)c1cccc2ccccc12` (centres unmarked) [1-decyl-2-hydroxy-2-(1-naphthalenyl)-2,3-dihydro-1H-imidazo[1,2-a]pyrimidin-4-ium bromide], for which the negative logarithm of the IC50 (pIC50) under setting [3] was 4.16.

As for `CCCCCCCCCCN1c2nccc[n+]2CC1(O)c1cccc(Br)c1` (centres unmarked) [1-decyl-2-hydroxy-2-(3-bromophenyl)-2,3-dihydro-1H-imidazo[1,2-a]pyrimidin-4-ium bromide], the pIC50 under setting [3] is 4.47.

With `CCCCCCCCCCN1c2nccc[n+]2CC1(O)c1ccc(S(C)(=O)=O)cc1` (centres unmarked) [1-decyl-2-hydroxy-2-(4-methylsulfonylphenyl)-2,3-dihydro-1H-imidazo[1,2-a]pyrimidin-4-ium bromide], the pIC50 under setting [3] was 4.66.

For `CCCCCCCCCCN1c2nccc[n+]2CC1(O)c1ccc(SC)cc1` (centres unmarked) [1-decyl-2-hydroxy-2-(4-methylthiophenyl)-2,3-dihydro-1H-imidazo[1,2-a]-pyrimidin-4-ium bromide], the pIC50 under setting [3] is 4.34.

For the molecule `CCCCCCCCCCN1c2nccc[n+]2CC1(O)c1ccc(-c2ccc([N+](=O)[O-])cc2)cc1` (centres unmarked) [1-decyl-2-hydroxy-2-(4′-nitro[1,1′-biphenylyl]-4-yl)-2,3-dihydro-1H-imidazo[1,2-a]pyrimidin-4-ium bromide], the pIC50 under setting [1] is 3.70.

Take `CCCCCCCC[n+]1c(-c2ccc(-c3ccc(-c4ccccc4)cc3)cc2)cn2cccnc21.[O-][Cl+3]([O-])([O-])[O-]` [1-octyl-2-([1,1′:4′,1″-terphenyl]-4-yl)-imidazo[1,2-a]pyrimidin-1-ium perchlorate]: the pIC50 (Salmonella enterica, 24 h, read-out: (1) IC50 (biofilm inhibition)) was 5.30.

Take `CN1c2nccc[n+]2CC1(O)c1ccc(F)cc1` (centres unmarked) [Compound 37]: under setting [2], the pIC50 is under 3.10.

Regarding `CCCCN1c2nccc[n+]2CC1(O)c1ccc(F)cc1` (centres unmarked) [Compound 38], the negative-log IC50 (pIC50) reads like this: under setting [4], 3.76; under setting [5], 3.76; under setting [2], 3.79.

Take `CCCCCCCCCCN1c2nccc[n+]2CC1(O)c1ccc(F)cc1` (centres unmarked) [Compound 40]: the pIC50 runs as follows: under setting [1], 4.70; under setting [2], 4.70.

For `CCCCN1c2nccc[n+]2CC1(O)c1ccc(Br)cc1` (centres unmarked) [Compound 41], the pIC50 was 4.19 under setting [4], 4.19 under setting [5] and 4.05 under setting [2].

As to `CC(C)CN1c2nccc[n+]2CC1(O)c1ccc(Br)cc1` (centres unmarked) [Compound 42], the pIC50 under setting [2] was 5.28.

As for `CCCCCN1c2nccc[n+]2CC1(O)c1ccc(Br)cc1` (centres unmarked) [Compound 43], the pIC50 under setting [2] was 5.77.

With `CN1c2nccc[n+]2CC1(O)c1cccc([N+](=O)[O-])c1` (centres unmarked) [Compound 44], under setting [2], the pIC50 is 3.25.

Take `CCCCN1c2nccc[n+]2CC1(O)c1ccc(OC)cc1` (centres unmarked) [Compound 45]: the pIC50 under setting [2] is 3.50.

Take `CCCCCCCCCCN1c2nccc[n+]2CC1(O)c1ccc(OC)cc1` (centres unmarked) [Compound 47]: the pIC50 is 4.73 under setting [1] and 4.73 under setting [2].

As for `CC(C)CN1c2nccc[n+]2CC1(O)c1ccc(Cl)c(Cl)c1` (centres unmarked) [Compound 48], under setting [2], the pIC50 was 5.10.

Consider `CCCCCCCCCCN1c2nccc[n+]2CC1(O)c1ccc(Cl)c(Cl)c1` (centres unmarked) [Compound 50], for which the pIC50 under setting [1] was 4.49 and the negative logarithm of the IC50 (pIC50) under setting [2] is 4.49.

Turning to `O=[N+]([O-])c1ccc(C2(O)C[n+]3cccnc3N2C2CC2)cc1` (centres unmarked) [Compound 68], the pIC50 (25° C., Table 18, read-out: S. Typhimurium IC50 (biofilm formation)) is 3.90.

For the molecule `O=[N+]([O-])c1ccc(C2(O)C[n+]3cccnc3N2Cc2ccccc2)cc1` (centres unmarked) [Compound 72], the pIC50 runs as follows: under setting [4], 3.65; under setting [5], 3.65; under setting [6], 3.76.

For the molecule `COc1ccc(CN2c3nccc[n+]3CC2(O)c2ccc(Br)cc2)cc1` (centres unmarked) [Compound 74], the pIC50 was 3.98 under setting [4], 3.98 under setting [5] and 3.96 under setting [6].

Take `COc1cccc(CCN2c3nccc[n+]3CC2(O)c2ccc([N+](=O)[O-])cc2)c1` (centres unmarked) [Compound 75]: the pIC50 by setting is: under setting [4], 3.91; under setting [5], 3.91; under setting [6], 3.91.

Take `COc1cccc(CCN2c3nccc[n+]3CC2(O)c2ccc(F)cc2)c1` (centres unmarked) [Compound 76]: the pIC50 under setting [6] was 3.98.

For `CCCCCCCCCNc1nc(-c2ccc(Cl)cc2)c[nH]1` [Compound 89], the pIC50 under setting [7] was under 3.10.

Take `CNc1ncc(-c2ccc(F)c(F)c2)[nH]1` [Compound 112]: the pIC50 under setting [7] was 3.22.

As for `CNc1ncc(-c2ccc(O)cc2)[nH]1` [Compound 113], under setting [7], the pIC50 was 3.80.

Take `CCCCNc1nc(-c2ccccc2)c[nH]1` [R1=H, R2=Butyl, R3=H, R4=Ph]: the pIC50 under setting [8] was 4.60.

Turning to `CCCCNc1nc(-c2ccc(Br)cc2)c[nH]1` [R1=H, R2=Butyl, R3=H, R4=p-Br—Ph], the pIC50 under setting [8] was 5.15.

Regarding `CCCCNc1nc(-c2ccc(OC)cc2)c[nH]1` [R1=H, R2=Butyl, R3=H, R4=p-MeO—Ph], the pIC50 under setting [8] was 4.31.

Turning to `O=[N+]([O-])c1ccc(-c2c[nH]c(NC3CCCCC3)n2)cc1` [R1=H, R2=Cyclohexyl, R3=H, R4=p-NO2—Ph], the pIC50 under setting [8] was 4.36.

With `CNc1nc(-c2ccc(F)cc2)c[nH]1` [R1=H, R2=Methyl, R3=H, R4=p-F—Ph], the pIC50 under setting [8] was 3.99.

As to `c1ccc(-c2ccc(-c3c[nH]c(NC4CCCC4)n3)cc2)cc1` [R1=H, R2=cyclopentyl, R3=H, R4=Bi—Ph], the pIC50 under setting [8] is 4.34.

For `c1ccc(-c2c[nH]c(NC3CCCC3)n2)cc1` [R1=H, R2=cyclopentyl, R3=H, R4=Ph], the pIC50 under setting [8] is 4.28.

For the molecule `O=[N+]([O-])c1ccc(-c2c[nH]c(NC3CCCC3)n2)cc1` [R1=H, R2=cyclopentyl, R3=H, R4=p-NO2—Ph], the pIC50 under setting [8] was 4.92.

As to `Cc1ccc(-c2c[nH]c(NC(C)C)n2)cc1` [R1=H, R2=i-Propyl, R3=H, R4=p-Me—Ph], under setting [8], the pIC50 was 4.00.

Consider `CCCCCCN1c2nccc[n+]2C(C)C1(O)c1ccccc1` (centres unmarked) [R1=Hexyl, R3=Ph, R4=Me, 1-hexyl-2-hydroxy-2-phenyl-3-methyl-2,3-dihydro-1H-imidazo[1,2-a]pyrimidin-4-ium bromide], for which the negative logarithm of the IC50 (pIC50) by setting is: under setting [9], 3.66; under setting [10], 3.66.

For the molecule `Cc1ccc(C2(O)C[n+]3cccnc3N2C(C)C)cc1` (centres unmarked) [R1=Isopropyl, R3=4-Me—Ph, R4=H, 1-isopropyl-2-hydroxy-2-(4-methylphenyl)-2,3-dihydro-1H-imidazo[1,2-a]pyrimidin-4-ium bromide], the pIC50 was 3.66 under setting [9] and 3.66 under setting [10].

Consider `N#Cc1ccc(C2(O)C[n+]3cccnc3N2C2CCCCC2)cc1` (centres unmarked) [R1=cyclohexyl, R3=4-CN—Ph, R4=H, 1-cyclohexyl-2-hydroxy-2-(4-cyanophenyl)-2,3-dihydro-1H-imidazo[1,2-a]pyrimidin-4-ium bromide], for which the pIC50 under setting [9] was 3.45 and the pIC50 under setting [10] was 3.45.
